Assay results: patent USRE40050E1, “Method for cleaning and/or disinfecting food processing equipment” (priority 1999, dated 2008)

How the values were obtained:
[1] = root beer, buffered pH about 11, integrated absorbance 440 to 700 nm vs control without CIP composition; ppm of active as per example
Protocol: For each of the five (5) experiments below, two quartz UV cells having a path length of 5.0 cm were each charged with 5.95 mL of a 0.1 molar sodium phosphate solution (to establish a buffered pH of about 11). The first cell was further charged with 0.6 mL of neat (conventional) root beer, as made commercially available. The second cell was further charged with 0.6 mL deionized water. Using the contents of the second cell as the blank, the absorbance of the resulting root beer solution was determined over the range of 440 to 700 nm, using a Hewlett-Packard 8452 UV/vis spectrophotometer. The absorbance over this wavelength range was integrated, and the percent (%) reduction in color of root beer was based on a comparison to the integrated absorbance of the control to which no CIP composition has been added.

[2] = system: Bacillus cerus; assay: Suspension test, percent microbes killed by CIP composition; type: cell-based; details: suspension 8.5 log bacteria/mL, 50 ppm CaCO3
Protocol: (§1) American Type Culture Collection cultures were transferred daily and maintained on agar slants containing the appropriate growth medium^1. A loopful of the culture was transferred into 10 ml of Butterfield's phosphate buffer pH 7.2 (NutraMax Products, Inc.) and agitated to obtain a homogeneous turbid suspension. The actual concentration of microbes in suspension was estimated by its serial dilution in Butterfield's phosphate buffer and subsequent transfer of 0.1 ml of the dilution series into a Petri plate containing the appropriate agar growth medium. The inoculated Petri plates were incubated for 48-72 hours (at about 37° C.) and the resulting colonies counted with a Quebec colony counter. The number of colonies on the Petri plates multiplied by the serial dilution factor is equal to the number of microbes in 0.1 ml of inoculum.
(§2) Suspension test: 1 ml of each microbial suspension was mixed with 9 ml of each CIP composition containing 50 ppm CaCO3 at 10/9 of the recommended use concentration (RUC) so that final concentration was exact RUC. After contact times described above, 1 ml of the mixture was put to 9 ml of neutralizer^2 from which 0.1 ml of sample was plated onto the appropriate agar and incubated at 28° C. for 48-72 hours before counting. The number of colonies present on the Petri plates multiplied by the serial dilution factor is equal to the number of microbes in 0.1 ml that survived in the sanitizer solution.
(§3) The per cent microbes killed by CIP composition is calculated by using the following equation: […]
(§4) One (1) mL of suspension and 9.0 mL of CIP composition were combined, resulting in the above data. The pH of the chlorine dioxide CIP composition was 5.8, the mixed halogen is sold by DiverseyLever under the name of Divosan MH and the peroxyacetic acid was an aqueous solution having about 65% water.

[3] = system: Byssochlamys nivea; assay: as above; type: cell-based; details: suspension 8.1 log bacteria/mL, 50 ppm CaCO3
Protocol: as §1, §2, §3, §4

[4] = system: Candida Albicans; assay: as above; type: cell-based; details: suspension 8.0 log bacteria/mL, 50 ppm CaCO3
Protocol: as §1, §2, §3, §4

[5] = system: Lactobacillus brevis; assay: as above; type: cell-based; details: suspension 8.2 log bacteria/mL, 50 ppm CaCO3
Protocol: as §1, §2, §3, §4

[6] = system: Rhizopus stolonifer; assay: as above; type: cell-based; details: suspension 7.5 log bacteria/mL, 50 ppm CaCO3
Protocol: as §1, §2, §3, §4

[7] = system: Zygosaccharomyces bailii; assay: as above; type: cell-based; details: suspension 8.5 log bacteria/mL, 50 ppm CaCO3
Protocol: as §1, §2, §3, §4

Row | Structure (SMILES) | % Reduction of Color [1] | percent bacteria killed, Bacillus cerus ([2]; contact 2 minutes) | percent bacteria killed, Byssochlamys nivea ([3]; contact 30 seconds) | percent bacteria killed, Byssochlamys nivea ([3]; contact 2 minutes) | percent bacteria killed, Candida Albicans ([4]; contact 2 minutes) | percent bacteria killed, Lactobacillus brevis ([5]; contact 2 minutes) | percent bacteria killed, Rhizopus stolonifer ([6]; contact 30 seconds) | percent bacteria killed, Rhizopus stolonifer ([6]; contact 2 minutes) | percent bacteria killed, Zygosaccharomyces bailii ([7]; contact 2 minutes) | percent bacteria killed, Bacillus cerus ([2]; contact 30 seconds) | percent bacteria killed, Candida Albicans ([4]; contact 30 seconds) | percent bacteria killed, Lactobacillus brevis ([5]; contact 30 seconds) | percent bacteria killed, Zygosaccharomyces bailii ([7]; contact 30 seconds)
1 | [O][Cl+][O-] [Example 3, chlorine dioxide] | 56.09% | – | – | – | – | – | – | – | – | – | – | – | –
2 | [Na+].[O-]Cl [Example 4, sodium hypochlorite] | 36.49% | – | – | – | – | – | – | – | – | – | – | – | –
3 | CC(=O)OO [Example 6, peroxyacetic acid] | 25.76% | – | – | – | – | – | – | – | – | – | – | – | –
4 | [O][Cl+][O-] [Example 7, chlorine dioxide] | – | ~99.9999% | About 99.99% | ~99.9999% | About 99.9999% | ~99.9999% | About 99.99% | ~99.9999% | ~99.9999% | – | – | – | –
5 | CC(=O)OO [Example 9, Peroxyacetic acid] | – | ~99.9999% | About 99.9% | About 99.99% | About 99.9999% | ~99.9999% | <99% | <99% | ~99.9999% | ~99.99% | About 99.99% | ~99.9999% | About 99.99%
